Data: ChEMBL document CHEMBL3046270, “Bleaching herbicide norflurazon inhibits phytoene desaturase by competition with the cofactors” (J Agric Food Chem, 2001)
Activity calls are given as the source filed them.

Experiments:
[1] = target: Phytoene desaturase (Gentiana lutea) (UniProt Q8W433); experiment: Competitive inhibition of Gentiana lutea desaturase using decyl plastoquinone as cofactor and phytoene as substrate at 0.1 uM after 2 hr by double reciprocal plot analysis
[2] = target: 15-cis-phytoene desaturase (Synechococcus elongatus (strain PCC 7942) (Anacystis nidulans R2)) (UniProt P26294); experiment: Competitive inhibition of Synechococcus phytoene desaturase using decyl plastoquinone as cofactor and phytoene as substrate at 0.1 uM after 2 hr by double reciprocal plot analysis
[3] = target: 15-cis-phytoene desaturase (Synechococcus elongatus (strain PCC 7942) (Anacystis nidulans R2)) (UniProt P26294); experiment: Competitive inhibition of Synechococcus phytoene desaturase using NADP as cofactor and phytoene as substrate at 0.1 uM after 2 hr by double reciprocal plot analysis

Measured: inhibition

15-cis-phytoene desaturase (Synechococcus elongatus (strain PCC 7942) (Anacystis nidulans R2)), sequence (P26294 whole entry): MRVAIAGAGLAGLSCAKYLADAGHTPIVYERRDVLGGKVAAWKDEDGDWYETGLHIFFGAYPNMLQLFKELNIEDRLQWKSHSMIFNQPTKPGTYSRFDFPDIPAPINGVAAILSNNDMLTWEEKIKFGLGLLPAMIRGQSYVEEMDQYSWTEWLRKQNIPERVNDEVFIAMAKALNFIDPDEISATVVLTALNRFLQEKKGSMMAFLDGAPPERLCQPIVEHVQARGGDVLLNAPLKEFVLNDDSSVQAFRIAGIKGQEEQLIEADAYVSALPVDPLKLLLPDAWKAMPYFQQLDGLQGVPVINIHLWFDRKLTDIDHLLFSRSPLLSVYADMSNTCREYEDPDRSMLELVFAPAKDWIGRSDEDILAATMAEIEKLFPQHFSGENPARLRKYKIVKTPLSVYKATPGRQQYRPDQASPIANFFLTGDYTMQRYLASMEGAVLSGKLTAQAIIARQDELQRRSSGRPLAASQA
Phytoene desaturase (Gentiana lutea), sequence (Q8W433 as listed by the source): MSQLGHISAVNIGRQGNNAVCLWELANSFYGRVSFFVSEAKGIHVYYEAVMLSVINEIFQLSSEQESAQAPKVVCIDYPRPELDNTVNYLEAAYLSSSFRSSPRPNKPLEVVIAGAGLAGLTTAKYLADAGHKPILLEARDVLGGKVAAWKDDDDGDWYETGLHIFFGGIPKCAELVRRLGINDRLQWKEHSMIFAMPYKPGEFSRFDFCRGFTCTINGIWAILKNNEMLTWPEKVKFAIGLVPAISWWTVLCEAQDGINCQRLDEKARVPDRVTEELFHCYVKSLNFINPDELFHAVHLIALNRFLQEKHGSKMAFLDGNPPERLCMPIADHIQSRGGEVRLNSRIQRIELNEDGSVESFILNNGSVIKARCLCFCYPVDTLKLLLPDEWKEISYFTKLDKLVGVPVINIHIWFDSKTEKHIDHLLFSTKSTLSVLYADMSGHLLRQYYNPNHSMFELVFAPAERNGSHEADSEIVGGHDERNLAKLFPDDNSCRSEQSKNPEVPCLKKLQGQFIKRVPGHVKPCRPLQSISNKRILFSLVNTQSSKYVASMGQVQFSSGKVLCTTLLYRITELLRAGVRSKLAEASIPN

CNc1cnn(-c2cccc(C(F)(F)F)c2)c(=O)c1Cl
active: all assays above
